From patent US11696938B2, “Human cancer cell metastasis inhibitory agent and human cancer cell determination agent” (priority 2017, dated 2023)

Assays:
OVCAR cells [1] = assay: Cell binding experiment; design: species or system human; settings: 5 μM rhodamine-labeled; calcium absent; control p1
PC-3 cells [2] = assay: Cell binding experiment; design: species or system human; settings: 5 μM rhodamine-labeled; calcium absent; control hDC-p1
Source text: The PC-3 cell line (which may be referred to as “PC-3 cells” or, simply, “cells”), which is a commonly used cell line, was used. PC-3 cells were obtained from RIKEN BioResource Center (Cell No. RCB2145), and cultured in DMEM medium (+10% FBS) according to a conventional method. This line is a human prostate cancer-derived cell line.

OVCAR cells [3] = assay: Cell invasion assay; type: cell-based, human; settings: 2 or 10 μM; control peptide p1 10 μM
Experimental: (§1) Cell invasion was analyzed using a BD BioCoat (registered trademark) Matrigel Invasion Chamber (Becton, Dickinson and Company). First, a certain amount of cells (about 1×10^5 cells/well) were treated with 2 μM, 8 μM, or 20 μM mouse dicalcin at room temperature for 20 minutes.
(§2) The treated cells were washed by centrifugation treatment, and then plated in the upper chamber of a transwell preliminarily coated with Matrigel, followed by performing culture using DMEM (+10% FBS) as a medium.
(§3) About 16 hours later, the invading cells that had migrated into the lower chamber were fixed using 4% paraformaldehyde/phosphate buffer at room temperature for 10 minutes, and then stained with crystal violet, followed by excision of the membrane, embedding on a slide, and counting of the cell number. The invasion index was calculated as {(number of stained cells)/(number of plated cells)}×100(%), and normalized by the later-mentioned result of Experimental Example 2-2, which was taken as 100(%).
The OVCAR-3 cell line (which may be referred to as “OVCAR cells” or, simply, “cells”), which is a commonly used cell line, was used. OVCAR cells were obtained from RIKEN BioResource Center (Cell No. RCB2135), and cultured in DMEM medium (+10% FBS) according to a conventional method. This line is a human ovarian cancer (adenocarcinoma)-derived cell line.
An analysis was carried out in the same manner as in Experimental Example 2-1 except that OVCAR cells were used as the cells, and that 8 μM or 20 μM human dicalcin was used instead of mouse dicalcin.
An analysis was carried out in the same manner as in Experimental Example 9-1 except that 20 μM BSA was used instead of human dicalcin.
An analysis was carried out in the same manner as in Experimental Example 2-1 except that OVCAR cells were used as the cells, and that 2 μM or 10 μM hDC-p6 was used as a partial peptide. Statistical analysis was carried out by unpaired Student t-test in order to analyze a significant difference.

PC-3 cells [4] = assay: Cell invasion assay; type: cell-based, human; settings: 10 μM; control hDC-p1 10 μM
Experimental: as §1, §2, §3
An analysis was carried out in the same manner as in Experimental Example 2-1 except that PC-3 cells were used as the cells, and that 10 μM hDC-p6 was used as a partial peptide. Statistical analysis was carried out by unpaired Student t-test in order to analyze a significant difference.

human cancer tissues = assay: Cell binding experiment on paraffin sections of human cancer tissues
Experimental: After washing, analysis was carried out using a fluorescence microscope (Olympus Corporation).
An experiment was carried out in the same manner as in Experimental Example 15-1 except that a paraffin section derived from a human prostate cancer tissue (US Biomax Inc.) was used as a target.
An experiment was carried out in the same manner as in Experimental Example 15-1 except that a paraffin section derived from a human colorectal (colon) cancer tissue (US Biomax Inc.) was used as a target. The white dotted line indicates the border between the tumor area and the normal area.
An experiment was carried out in the same manner as in Experimental Example 15-1 except that a paraffin section derived from a human colorectal (rectal) cancer tissue (US Biomax Inc.) was used as a target. The white dotted line indicates the border between the tumor area and the normal area.
An experiment was carried out in the same manner as in Experimental Example 15-1 except that a paraffin section derived from a human breast cancer (breast ductal carcinoma) tissue (US Biomax Inc.) was used as a target.
An experiment was carried out in the same manner as in Experimental Example 15-1 except that a paraffin section derived from a human breast cancer (invasive lobular carcinoma) tissue (US Biomax Inc.) was used as a target. […]

OV2944 cells [5] = assay: Cell invasion assay (Matrigel Invasion Chamber); type: cell-based, mouse
Experimental: as §1, §2
About 16 hours later, the invading cells that had migrated into the lower chamber were fixed using 4% paraformaldehyde/phosphate buffer at room temperature for 10 minutes, and then stained with crystal violet, followed by excision of the membrane, embedding on a slide, and counting of the cell number.

OV2944 cells [6] = assay: Cell migration assay; type: cell-based, mouse; settings: 5 μM; versus p1 and no peptide
Experimental: The plasmid vector pDsRed2-C1 (Clontech), which expresses a fluorescent protein (DsRed2), was transfected into cells. […] The observation was carried out for 12 to 37 cells. Statistical analysis was carried out by unpaired Student t-test in order to analyze a significant difference.
An experiment was carried out in the same manner as in Experimental Example 8-1 except that no partial peptide was added.

[7] = Glycolipid sugar chain array binding experiment; settings: 5 μM fluorescently labeled, 4° C. overnight
Erk1/2 = assay: Suppression of Erk1/2 signaling (Western blotting, pErk/Erk); type: cell-based, mouse
Source text: The OV2944 cells were extracted and sonicated, and then analyzed for the activity of Erk1/2 by Western blotting. An antibody (Cell Signaling) against Erk1/2 protein in the phosphorylated state (that is, the activated state) (pErk1/2), or an antibody (Santa Cruz) against total Erk1/2 protein including the protein in the phosphorylated state and the protein in the dephosphorylated state (Erk1/2), was used therefor. The ratio between pErk1/2 and Erk1/2 (pErk/Erk) in the Western blot image was calculated, and the data were normalized by taking the value at time 0 as 1.

OV2944 cells [8] = assay: Analysis of survival after cell transfer (Kaplan Meier); type: in vivo, mouse
Experimental: (§4) The purified OV2944 cells expressing the fluorescent protein tdTomato were transferred into the abdominal cavity of mice (B6C3F1 strain, 9 weeks old, female, CLEA Japan, Inc.) (1×10^5 cells/mouse). […] On Day 21, the abdominal organs were removed, and OV2944 cells expressing the fluorescent protein tdTomato in the liver were observed using a fluorescence stereomicroscope OV110 (Olympus Corporation).
Intraperitoneal injection was carried out in the same manner as in Experimental Example 13-1 and Experimental Example 13-2, and survival analysis was carried out thereafter to provide Experimental Example 14-1 and Experimental Example 14-2. For the survival curve according to the Kaplan Meier method, a significant difference was analyzed by log-rank test.

[9] = test system: GM1b on the plasma membrane of OV2944 cells; assay: GM1b inhibition assay in relation to binding of partial peptide p6 to OV2944 cells; design: species or system mouse; settings: 5 μM TMR-labeled p6
Experimental: Cultured OV2944 cells were fixed on a glass plate (4% paraformaldehyde/phosphate buffer, room temperature, 10 minutes), and treated with sheep serum. […] After washing, analysis was carried out using a confocal microscope (Carl Zeiss).
An experiment was carried out in the same manner as in Experimental Example 18-1 except that GM1b was absent.
Further, an experiment was carried out in the same manner as in Experimental Example 18-1 and Experimental Example 18-2 for cases where GM1b was used alone at a concentration of 0, 10, or 100 μM, where GT1c was used alone at a concentration of 100 μM, and where GM1b and GT1c were used in combination at a concentration of 100 μM each.

OV2944 cells [10] = assay: Cell binding experiment (fluorescently labeled protein/peptide, confocal microscope); design: species or system mouse
Experimental: The OV2944-HM-1 cell line (which may be referred to as “OV2944 cells” or, simply, “cells”), which is a commonly used cell line, was used. OV2944 cells were obtained from RIKEN BioResource Center (Cell No. RCB1483), and cultured in DMEM medium (+10% FBS) according to a conventional method.
Cultured cells were fixed on a glass plate (4% paraformaldehyde/phosphate buffer, room temperature, 10 minutes), and treated with sheep serum. Thereafter, mouse dicalcin (5 μM) fluorescently labeled with tetramethylrhodamine (TMR) was reacted with the cells in the presence of 1 mM CaCl2 (4° C., overnight). After washing with TBS buffer, analysis was carried out using a confocal microscope (Carl Zeiss). Further, cell nuclei were stained with DAPI.
An experiment was carried out in the same manner as in Experimental Example 1-1 except that the reaction was carried out in the presence of 1 mM EGTA (which may be referred to as “in the absence of calcium”).
An experiment was carried out in the same manner as in Experimental Example 1-1 except that immunostaining was carried out using an anti-mouse dicalcin antibody (Catalog No. MAB5167, R&D Systems) as a primary antibody, and an Alexa Fluor (registered trademark) 594-labeled anti-rat IgG antibody (Catalog No. A11007, Invitrogen) as a secondary antibody.
An experiment was carried out in the same manner as in Experimental Example 1-1 except that each of partial peptides p1 to p7 (5 μM) fluorescently labeled with rhodamine was used.

[11] = test system: OV2944 cells expressing the fluorescent protein tdTomato; assay: Observation of metastasis to liver after intraperitoneal cell transfer; type: in vivo, mouse; settings: 3 nmoles/two days, Day 21, versus control peptide p1
Experimental: The plasmid vector ptdTomato-C1 (Clontech), which expresses the fluorescent protein tdTomato, was transfected into OV2944 cells, and, 24 to 48 hours later, the cells were suspended in phosphate buffer. Using a flow cytometer (FACS Aria, BD Biosciences), the OV2944 cells expressing the fluorescent protein tdTomato shown in FIG. 13A to FIG. 13C were purified.
as §4
FIG. 15-1B focuses on cell colonies. […] The number of colonies was counted, and a significant difference was analyzed by unpaired Student t-test.

Substance | binding to the cells (fluorescence intensity) (OVCAR cells [1]) | binding to the cells (fluorescence intensity) (PC-3 cells [2]) | cell invasion (invasion index) (OVCAR cells [3]) | cell invasion (invasion index) (PC-3 cells [4]) | binding to cancer cells of tissue sections (human cancer tissues; 5 μM, 4° C. overnight, ovarian, prostate, colon, rectal, breast (4 types), renal, lung, glioma) | determination of tumor area by fluorescence positive reaction (human cancer tissues; colon cancer section, blocking and peptide reaction together, 37° C., 1 hour) | cell invasion, ranking of suppression (OV2944 cells [5]; 8 μM each, versus 10 μM BSA) | cell invasion, concentration dependence (OV2944 cells [5]; 0.2, 0.8, 2, 8, 20 μM) | cell migration (migration distance) (OV2944 cells [6]) | target molecule candidate by binding to glycolipid sugar chains [7] | Erk1/2 activity (pErk/Erk) (Erk1/2; 5 μM p6 alone (absence of GM1b), 0-30 minutes) | Erk1/2 activity (pErk/Erk) with GM1b present (Erk1/2; p6 and GM1b present) | increase in average number of days of survival (OV2944 cells [8]; Experimental Example 14-1 relative to 14-2 (p1)) [%] | average number of days of survival (OV2944 cells [8]; intraperitoneal, 3 nmoles/two days) [days] | survival rate of mice (OV2944 cells [8]; intraperitoneal, 3 nmoles/two days, versus control peptide p1, log-rank test) | binding to OV2944 cell / plasma membrane in presence of GM1b ([9]; GM1b in the medium (10, 100 μM)) | binding ability to OV2944 cells in presence of GT1c ([9]; GT1c 100 μM) | cell-binding ability (fluorescence intensity) (OV2944 cells [10]; 5 μM rhodamine-labeled partial peptides, ranking) | site of binding on cells (OV2944 cells [10]; 5 μM, CD44 as plasma membrane control) | number of colonies in the liver [11]
hDC-p6: partial peptide of human dicalcin, SEQ ID NO: 7, QLDFSEFLNLI (listed as Homo sapiens) | binds to the cells | binds to the cells | suppresses cell invasion in a concentration-dependent manner | suppresses cell invasion | binds to cancer cells of any of these tissues | tumor area could be determined | – | – | – | – | – | – | – | – | – | – | – | – | – | –
partial peptide of mouse dicalcin, SEQ ID NO: 17, QLDFQEFLNLI (listed as Mus musculus) [p6] | – | – | – | – | – | – | suppresses cell invasion at the highest level | suppressed cell invasion in a concentration-dependent manner | suppresses migration of the cells | GM1b ganglioside was suggested | suppresses the Erk1/2 activity | disappearance of the Erk-suppressing action | 21 | 38.5 | significantly suppresses a decrease in the survival rate | remarkably decreased | did not change | highest cell-binding ability | binds to the plasma membranes of cells | significantly smaller
